Experimental data from BindingDB's records for doi:10.1021/jm100984y (The University of Queensland, 2010).

Target: T1, Proteinase-activated receptor 2 (Homo sapiens, UniProt P55085)
T1 sequence (P55085 whole entry): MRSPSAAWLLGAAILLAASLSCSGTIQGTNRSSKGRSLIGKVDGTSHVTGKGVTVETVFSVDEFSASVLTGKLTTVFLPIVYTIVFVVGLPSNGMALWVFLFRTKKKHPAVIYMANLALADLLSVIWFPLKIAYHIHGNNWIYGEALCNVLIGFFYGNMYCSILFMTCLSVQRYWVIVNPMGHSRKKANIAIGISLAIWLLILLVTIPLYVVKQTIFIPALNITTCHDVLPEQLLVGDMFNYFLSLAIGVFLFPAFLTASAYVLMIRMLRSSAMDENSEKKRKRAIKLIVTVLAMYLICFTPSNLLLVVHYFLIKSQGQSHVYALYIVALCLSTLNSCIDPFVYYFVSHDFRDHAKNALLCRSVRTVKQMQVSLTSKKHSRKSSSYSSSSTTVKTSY
Test: Agonist activity at PAR2 receptor in human HT-29 cells assessed as induction of intracellular calcium release

EC50: 316 nM
SMILES: CC[C@H](C)[C@H](NC(=O)[C@H](CC1CCCCC1)NC(=O)c1ccno1)C(=O)Nc1ccc(CC(=O)N2CCC(CN)CC2)cc1 [5-Isoxazoyl-Cha-Ile-4-aminophenyl-(4-[aminomethyl]piperidin-1-yl)ethan-2-one]
